Reference: patent US20240208907A1, “GPR52 MODULATORS AND METHODS OF USE” (Neurocrine Biosciences, Inc., priority 2021, published 2024)
Structures can show the parent of a compound that is named as a salt.

Target: T1, recombinant human GPR52 (Homo sapiens, UniProt Q9Y2T5)
T1 construct: expressed in transfected cells
Assay: GPR52 activity: TR-FRET cAMP assay (LANCE Ultra cAMP Kit)
Format: cell-based
Conditions: Flp-In-CHO cells stably expressing recombinant human GPR52; cAMP production, normalized to positive control
Experimental: TR-FRET cAMP assays were performed using commercially available assay kits (LANCE™ Ultra cAMP Kit). Controls and compounds were solubilized in DMSO using ½ log dilution to generate duplicate 10-point dose response curves in 384-well polypropylene compound plates. Sixty nanoliters of the diluted compounds were transferred into 384-well NBS assay plates and further diluted to 1× with the addition of 2000 cells per well. Flp-In™-CHO cells that stably express recombinant human GPR52.
Cells were harvested with cell stripper and resuspended in Stimulation Buffer (5 mM HEPES, 0.1% bovine serum albumin (BSA), 0.5 mM IBMX, pH 7.4). After thirty minutes incubation at room temperature, detection reagents were added to each well. Plates were then incubated for 30 minutes at room temperature. The LANCE™ Ultra cAMP assay uses time-resolved fluorescence resonance energy transfer (TR-FRET) to detect cAMP production; this signal was quantified using a Pherastar multi-mode plate reader.
Dose-response curves were generated from the fluorescence counts normalized to the positive control. E EC50 values were obtained using a nonlinear regression curve-fitting program.

T1 sequence (Q9Y2T5 whole entry): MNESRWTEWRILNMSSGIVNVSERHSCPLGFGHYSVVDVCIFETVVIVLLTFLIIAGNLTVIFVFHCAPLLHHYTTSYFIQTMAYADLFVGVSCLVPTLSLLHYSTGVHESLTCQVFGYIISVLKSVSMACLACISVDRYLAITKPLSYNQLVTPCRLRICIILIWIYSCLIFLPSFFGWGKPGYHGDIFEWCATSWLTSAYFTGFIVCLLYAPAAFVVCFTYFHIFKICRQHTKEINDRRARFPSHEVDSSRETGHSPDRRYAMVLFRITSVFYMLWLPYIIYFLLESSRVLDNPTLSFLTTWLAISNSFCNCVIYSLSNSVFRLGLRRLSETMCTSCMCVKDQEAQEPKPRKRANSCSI

Q: For `Cc1cc(-c2cc(Cc3cc(F)c(F)c(C#N)c3)ccn2)ccc1C(N)=O` [Compound 7, 4-{4-[(3-cyano-4,5-difluorophenyl)methyl]pyridin-2-yl}-2-methylbenzamide], which EC50 is on record?
A: Its EC50 is 25 to 100 nM.

Q: For `N#Cc1cc(Cc2ccnc(-c3ccc(C(N)=O)c(C(F)(F)F)c3)c2)cc(F)c1F` [Compound 6, 4-{4-[(3-cyano-4,5-difluorophenyl)methyl]pyridin-2-yl}-2-(trifluoromethyl)benzamide], which EC50 is on record?
A: The EC50 was under 25 nM.

Q: `Cc1cc(-c2cc(Cc3ccc(F)c(C#N)c3)ccn2)ccc1C(N)=O` [Compound 8, 4-{4-[(3-cyano-4-fluorophenyl)methyl]pyridin-2-yl}-2-methylbenzamide] was tested. Which EC50 did it give?
A: Its EC50 is 25 to 100 nM.

Q: Which EC50 does the source give for `NC(=O)c1ccc(-c2cc(Cc3cc(F)cc(Cl)c3)ccn2)cc1` [Compound 21, 4-{4-[(3-chloro-5-fluorophenyl)methyl]pyridin-2-yl}benzamide] here?
A: The EC50 was 101 to 1000 nM.

Q: For `CSc1cccc(Cc2ccnc(-c3ccc(C(N)=O)c(C)c3)c2)c1` [Compound 5, 2-methyl-4-(4-{[3-(methylsulfanyl)phenyl]methyl}pyridin-2-yl)benzamide], which EC50 is on record?
A: The EC50 was under 25 nM.

Q: How did the EC50 turn out when `N#Cc1cc(Cc2ccnc(-c3ccc(C(N)=O)c(F)c3)c2)cc(F)c1F` [Compound 24, 4-{4-[(3-cyano-4,5-difluorophenyl)methyl]pyridin-2-yl}-2-fluorobenzamide] was run?
A: The EC50 was 101 to 1000 nM.

Q: How did the EC50 turn out when `NC(=O)Cc1ccc(-c2cc(Cc3cccc(C(F)(F)F)c3)ccn2)cc1` [Compound 18, 2-[4-(4-{[3-(trifluoromethyl)phenyl]methyl}pyridin-2-yl)phenyl]acetamide] was run?
A: Its EC50 is 25 to 100 nM.

Q: Which EC50 does the source give for `NC(=O)c1ccc(-c2cc(Cc3cc(F)cc(C(F)(F)F)c3)ccn2)cc1` [Compound 14, 4-(4-{[3-fluoro-5-(trifluoromethyl)phenyl]methyl}pyridin-2-yl)benzamide] here?
A: Its EC50 is 25 to 100 nM.

Q: For `N#Cc1cc(Cc2ccnc(-c3ccc4c(c3)CCNC4=O)c2)ccc1F` [Compound 42, 2-fluoro-5-{[2-(1-oxo-1,2,3,4-tetrahydroisoquinolin-6-yl)pyridin-4-yl]methyl}benzonitrile], which EC50 is on record?
A: The EC50 was 101 to 1000 nM.

Q: Which EC50 does the source give for `N#Cc1cc(Cc2ccnc(-c3cccc(C(N)=O)c3)c2)cc(F)c1F` [Compound 38, 3-{4-[(3-cyano-4,5-difluorophenyl)methyl]pyridin-2-yl}benzamide] here?
A: The EC50 was 101 to 1000 nM.

Q: Which EC50 does the source give for `Cc1cc(-c2cc(Cc3cncc(S(C)(=O)=O)c3)ccn2)ccc1C(N)=O` [Compound 44, 4-{4-[(5-methanesulfonylpyridin-3-yl)methyl]pyridin-2-yl}-2-methylbenzamide] here?
A: The EC50 was under 25 nM.

Q: How did the EC50 turn out when `Cc1cc(-c2cc(C(O)c3cccc(C(F)(F)F)c3)ccn2)ccc1C(N)=O` (centres unmarked) [Compound 43, 4-(4-{hydroxy [3-(trifluoromethyl)phenyl]methyl}pyridin-2-yl)-2-methylbenzamide] was run?
A: The EC50 was over 1000 nM.

Q: For `CS(=O)(=O)c1cccc(Cc2ccnc(-c3ccc(C(N)=O)cc3)c2)c1` [Compound 27, 4-{4-[(3-methanesulfonylphenyl)methyl]pyridin-2-yl}benzamide], which EC50 is on record?
A: Its EC50 is 101 to 1000 nM.

Q: With `Cc1cc(-c2cccc(Cc3cccc(C(F)(F)F)c3)n2)ccc1C(N)=O` [Compound 12, 2-methyl-4-(6-{[3-(trifluoromethyl)phenyl]methyl}pyridin-2-yl)benzamide] as the compound, how does the EC50 read?
A: Its EC50 is 25 to 100 nM.

Q: For `COc1ccc(Cc2ccnc(-c3cccc(C(N)=O)c3)c2)cc1F` [Compound 29, 3-{4-[(3-fluoro-4-methoxyphenyl)methyl]pyridin-2-yl}benzamide], which EC50 is on record?
A: The EC50 was 101 to 1000 nM.

Q: `NC(=O)c1ccc(-c2cc(Cc3cccc(OC(F)(F)F)c3)ccn2)cc1` [Compound 26, 4-(4-{[3-(trifluoromethoxy)phenyl]methyl}pyridin-2-yl)benzamide] was tested. Which EC50 did it give?
A: Its EC50 is 101 to 1000 nM.

Q: With `Cc1cc(-c2cc(Cc3cc(F)c(F)c(C#N)c3)ccn2)cc(F)c1C(N)=O` [Compound 15, 4-{4-[(3-cyano-4,5-difluorophenyl)methyl]pyridin-2-yl}-2-fluoro-6-methylbenzamide] as the compound, how does the EC50 read?
A: The EC50 was 25 to 100 nM.

Q: With `Cc1cc(F)cc(Cc2ccnc(-c3ccc(C(N)=O)cc3)c2)c1` [Compound 28, 4-{4-[(3-fluoro-5-methylphenyl)methyl]pyridin-2-yl}benzamide] as the compound, how does the EC50 read?
A: Its EC50 is 101 to 1000 nM.

Q: `N#Cc1cc(F)cc(Cc2ccnc(-c3ccc(C(N)=O)cc3)c2)c1` [Compound 40, 4-{4-[(3-cyano-5-fluorophenyl)methyl]pyridin-2-yl}benzamide] was tested. Which EC50 did it give?
A: The EC50 was over 1000 nM.

Q: Which EC50 does the source give for `NC(=O)c1ccc(-c2cc(Cc3cc(C(F)(F)F)ccc3F)ccn2)cc1` [Compound 39, 4-(4-{[2-fluoro-5-(trifluoromethyl)phenyl]methyl}pyridin-2-yl)benzamide] here?
A: Its EC50 is 101 to 1000 nM.

Q: `N#Cc1cc(Cc2ccnc(-c3cccc(CC(N)=O)c3)c2)cc(F)c1F` [Compound 33, 2-(3-{4-[(3-cyano-4,5-difluorophenyl)methyl]pyridin-2-yl}phenyl)acetamide] was tested. Which EC50 did it give?
A: Its EC50 is 101 to 1000 nM.

Q: For `Cc1cc(-c2cc(Cc3cc(F)c(F)c(C#N)c3)c(F)cn2)ccc1C(N)=O` [Compound 9, 4-{4-[(3-cyano-4,5-difluorophenyl)methyl]-5-fluoropyridin-2-yl}-2-methylbenzamide], which EC50 is on record?
A: Its EC50 is 25 to 100 nM.

Q: Which EC50 does the source give for `NC(=O)c1cccc(-c2cc(Cc3cc(F)cc(Cl)c3)ccn2)c1` [Compound 25, 3-{4-[(3-chloro-5-fluorophenyl)methyl]pyridin-2-yl}benzamide] here?
A: Its EC50 is 101 to 1000 nM.

Q: Which EC50 does the source give for `Cc1cc(-c2cc(Cc3cccc(C(F)(F)F)c3)ccn2)ccc1C(=O)NCCO` [Compound 36, N-(2-hydroxyethyl)-2-methyl-4-(4-{[3-(trifluoromethyl)phenyl]methyl}pyridin-2-yl)benzamide] here?
A: The EC50 was 25 to 100 nM.

Q: Which EC50 does the source give for `Cc1cc(-c2cc(Cc3cccc(S(C)(=O)=O)c3)ccn2)ccc1C(N)=O` [Compound 11, 4-{4-[(3-methanesulfonylphenyl)methyl]pyridin-2-yl}-2-methylbenzamide hydrochloride] here?
A: The EC50 was 25 to 100 nM.

Q: Which EC50 does the source give for `Cc1cc(F)cc(Cc2ccnc(-c3cccc(C(N)=O)c3)c2)c1` [Compound 22, 3-{4-[(3-fluoro-5-methylphenyl)methyl]pyridin-2-yl}benzamide] here?
A: Its EC50 is 101 to 1000 nM.

Q: How did the EC50 turn out when `NC(=O)C1CCN(c2cc(Cc3cccc(C(F)(F)F)c3)ccn2)CC1` [Compound 41, 1-(4-{[3-(trifluoromethyl)phenyl]methyl}pyridin-2-yl)piperidine-4-carboxamide] was run?
A: The EC50 was 25 to 100 nM.

Q: With `NC(=O)Cc1cccc(-c2cc(Cc3cccc(C(F)(F)F)c3)ccn2)c1` [Compound 16, 2-[3-(4-{[3-(trifluoromethyl)phenyl]methyl}pyridin-2-yl)phenyl]acetamide] as the compound, how does the EC50 read?
A: Its EC50 is 25 to 100 nM.

Q: With `Cc1cc(-c2cc(Cc3cccc(S(C)(=O)=O)c3)c(F)cn2)ccc1C(N)=O` [Compound 31, 4-{5-fluoro-4-[(3-methanesulfonylphenyl)methyl]pyridin-2-yl}-2-methylbenzamide hydrochloride] as the compound, how does the EC50 read?
A: The EC50 was 25 to 100 nM.

Q: How did the EC50 turn out when `COc1ccc(Cc2ccnc(-c3ccc(C(N)=O)cc3)c2)cc1F` [Compound 20, 4-{4-[(3-fluoro-4-methoxyphenyl)methyl]pyridin-2-yl}benzamide] was run?
A: Its EC50 is 101 to 1000 nM.

Q: With `Cc1cc(-c2cc(Cc3cccc(S(=O)(=O)C(F)(F)F)c3)ccn2)ccc1C(N)=O` [Compound 34, 2-methyl-4-{4-[(3-trifluoromethanesulfonylphenyl)methyl]pyridin-2-yl}benzamide hydrochloride] as the compound, how does the EC50 read?
A: Its EC50 is 101 to 1000 nM.

Q: How did the EC50 turn out when `Cc1cc(Cc2ccnc(-c3ccc(C(N)=O)cc3)c2)ccc1F` [Compound 10, 4-{4-[(4-fluoro-3-methylphenyl)methyl]pyridin-2-yl}benzamide] was run?
A: Its EC50 is 25 to 100 nM.

Q: For `COc1cc(-c2cc(Cc3cc(F)c(F)c(C#N)c3)ccn2)ccc1C(N)=O` [Compound 13, 4-{4-[(3-cyano-4,5-difluorophenyl)methyl]pyridin-2-yl}-2-methoxybenzamide], which EC50 is on record?
A: Its EC50 is 25 to 100 nM.

Q: How did the EC50 turn out when `Cc1cc(-c2cc(Cc3cc(F)c(F)c(Cl)c3)ccn2)ccc1C(N)=O` [Compound 2, 4-{4-[(3-chloro-4,5-difluorophenyl)methyl]pyridin-2-yl}-2-methylbenzamide] was run?
A: Its EC50 is under 25 nM.

Q: `COc1cc(Cc2ccnc(-c3ccc(C(N)=O)c(C)c3)c2)cc(F)c1F` [Compound 4, 4-{4-[(3,4-difluoro-5-methoxyphenyl)methyl]pyridin-2-yl}-2-methylbenzamide] was tested. Which EC50 did it give?
A: Its EC50 is under 25 nM.

Q: `Cc1cc(-c2cc(Cc3cccc(C(F)(F)F)c3)ccn2)ccc1C(=O)N1CCNCC1` [Compound 35, 1-[2-methyl-4-(4-{[3-(trifluoromethyl)phenyl]methyl}pyridin-2-yl)benzoyl]piperazine hydrochloride] was tested. Which EC50 did it give?
A: Its EC50 is under 25 nM.

Q: Which EC50 does the source give for `NC(=O)c1ccc(-c2cc(Cc3ccc(F)c(C(F)(F)F)c3)ccn2)cc1` [Compound 23, 4-(4-{[4-fluoro-3-(trifluoromethyl)phenyl]methyl}pyridin-2-yl)benzamide] here?
A: The EC50 was 101 to 1000 nM.

Q: How did the EC50 turn out when `Cc1cc(-c2cc(Cc3cccc(C(F)(F)F)c3)ccn2)ccc1C(=O)NCCCO` [Compound 37, N-(3-hydroxypropyl)-2-methyl-4-(4-{[3-(trifluoromethyl)phenyl]methyl}pyridin-2-yl)benzamide] was run?
A: The EC50 was 25 to 100 nM.

Q: Which EC50 does the source give for `Cc1cc(Cc2ccnc(-c3cccc(C(N)=O)c3)c2)ccc1F` [Compound 19, 3-{4-[(4-fluoro-3-methylphenyl)methyl]pyridin-2-yl}benzamide] here?
A: Its EC50 is 25 to 100 nM.

Q: With `NC(=O)c1cccc(-c2cc(Cc3cc(F)cc(C(F)(F)F)c3)ccn2)c1` [Compound 17, 3-(4-{[3-fluoro-5-(trifluoromethyl)phenyl]methyl}pyridin-2-yl)benzamide] as the compound, how does the EC50 read?
A: Its EC50 is 25 to 100 nM.

Q: Which EC50 does the source give for `Cc1cc(-c2cc(Cc3cccc(C(F)(F)F)c3)ccn2)ccc1C(N)=O` [Compound 1, 2-methyl-4-(4-{[3-(trifluoromethyl)phenyl]methyl}pyridin-2-yl)benzamide] here?
A: Its EC50 is under 25 nM.
